Assay results taken from patent publication US7713939B2, “Illudin analogs useful as antitumor agents” (priority 1996, dated 2010).

Tests used:
[1] = system: 8392 (B-cell leukemia/lymphoma) cells; test: 2 hour exposure, [3H]-thymidine incorporation; format: cell-based
Description: (§1) To assess cytotoxic effects, various concentrations of illudins were added to cultures of MV522 (human lung carcinoma cell line) and 8392 (B-cell leukemia/lymphoma) cells for 48 hours, then cell growth/viability was determined by trypan blue exclusion. As an alternative to 48 hour continuous exposure studies, cells were plated in liquid culture in 96 well plates, exposed to various concentrations of illudins for 2 hours, pulsed with [^3H]-thymidine for one to two hours and harvested onto glass filters. The filter papers were added to vials containing scintillation fluid and residual radioactivity determined in a beta (scintillation) counter.

[2] = system: MV522 (human lung carcinoma cell line); test: 2 hour exposure, [3H]-thymidine incorporation; format: cell-based
Description: as §1

[3] = system: MV522 (human lung carcinoma cell line); test: 48 hour continuous exposure, trypan blue exclusion; format: cell-based; settings: 48 hour exposure
Description: as §1

[4] = system: MV522 lung carcinoma line; settings: for efficacy in MV522 xenograft (in words): summary of the in vivo table
Excerpt: Several analogs were chosen for in vivo studies. […] Drug therapy was started 10 days after inoculation on a daily basis via IP route for 5 consecutive days. The animals were monitored for 3 weeks after start of therapy.
BALB/c nu/nu 4-week old female mice weighing 18-22 g were obtained from Simonsen, Inc. (Gilroy, Calif.) and maintained in the athymic mouse colony of the University of California (San Diego, Calif.) under pathogen free conditions using HEPA filter hoods. Animals were provided with sterilized food and water ad libitum in groups of 5 in plastic cages vented with polyester fiber filter covers. Clean, sterilized gowns, glove, face masks, and shoe and hood covers were worn by all personnel handling the animals. All studies were conducted in accordance with guidelines of the NIH “Guide for Care and Use of Animals” and approved by the University Institutional Animal Care and Use Committee (Protocol 3-006-2)
The MV522 lung carcinoma line used for xenograft studies was derived as described by Kelner et al. (Anticancer Res., 15: 867-872; 873-878 (1995)) and maintained in antibiotic-free RPMI 1640 (Mediatech, Herndon, Va.) supplemented with 10% fetal bovine serum and 2 mM glutamine in 37° C. humidified carbon dioxide incubator.
Each animal was earmarked and followed individually throughout the experiments. Mice received s.c. injections of the parental cell line MV522 using 10 million cells/inoculation over the shoulder. Ten days after s.c. implantation of the MV522 cells, when s.c. tumors were approximately 3×3 mm in size, animals received the desired drug and dosage. The effect of the drug on life span was calculated from median survival.
Although MV522 cells kill mice by metastases, primary s.c. tumor growth over the shoulder was monitored starting on the first day of treatment and at weekly intervals thereafter. Tumor size was measured in two perpendicular diameters. Tumor weights were estimated according to the formula w=(width)^2×length/2). Relative weights (RW) were calculated to standardized variability in tumor size among test groups at initiation of treatment using the formula RW=Wt/wi, where Wi is the tumor weight for a given animal at beginning of drug treatment and Wt is tumor weight at a subsequent time. Animals were necropsied, and organs were examined for evidence of metastases.
Comparison of survival curves between groups of animals was by the method of Kaplan and Meir. For comparison of relative tumor weights between multiple groups of animals, ordinary ANOVA followed by Turkey-Kramer multiple Comparison post ANOVA analysis was preformed (Kelner et al. (Aniticancer Res., 15: 867-872; 873-878 (1995)). Probability values (p) less than 0.05 were considered statistically significant.

[5] = system: 8392 (B-cell leukemia/lymphoma) cells; test: 48 hour continuous exposure, trypan blue exclusion; format: cell-based; settings: 48 hour exposure
Description: as §1

Dunning leukemia = settings: rats with Dunning leukemia; cited from earlier work
solid tumor systems = settings: cited from earlier work

Structure (SMILES) | IC50 [1] [µM] | IC50 [2] [µM] | IC50 [3] [µM] | also measured
CC1=C2C=CC=C2C(=O)C2(OCCO2)C12CC2 [Compound 33] | 29.9 ± 3.3 | > 4 | 4.6 ± 0.2 | efficacy in MV522 xenograft (in words) [4]: effective
CC1=C(CCC=O)C2=C(C)C3(CC3)C(C)(O)C(=O)C2=C1 (stereo not shown) [Compound 10] | 29.4 ± 1.6 | – | – | IC50 [5]: 14.5 ± 1.65 µM
CC1=C(CSCC(O)CO)C2=C(C)C3(CC3)C(C)(O)C(=O)C2=C1 (stereo not shown) [Compound 32] | > 50 | 0.595 ± 0.185 | – | efficacy in MV522 xenograft (in words) [4]: effective
CC1=C(CSCc2ccccc2)C2=C(C)C3(CC3)C(C)(O)C(=O)C2=C1 (stereo not shown) [Compound 24] | 12.8 ± 2.14 | – | – | –
COC(C)(C)OCC1=C(C)C=C2C(=O)C(C)(O)C3(CC3)C(C)=C21 (stereo not shown) [Compound 21] | 34.3 ± 9.4 | – | 0.93 ± 0.25 | efficacy in MV522 xenograft (in words) [4]: more efficacious than HMAF
CC1=C(CSc2ccc(O)cc2)C2=C(C)C3(CC3)C(C)(O)C(=O)C2=C1 (stereo not shown) [Compound 23] | 138 ± 13 | 2.92 ± 1.14 | 2.75 ± 0.51 | –
COC(=O)CSCC1=C(C)C=C2C(=O)C(C)(O)C3(CC3)C(C)=C21 (stereo not shown) [Compound 25] | > 25 | – | – | –
CC1=C(C=O)C2=C(C)C3(CC3)C(C)(O)C(=O)C2=C1 (stereo not shown) [Compound 11] | > 100 | 4.9 ± 0.9 | – | IC50 [5]: 40.4 ± 6.7 µM
CC1=C(CC2CC(C=O)CC(C=O)C2O)C2=C(C)C3(CC3)C(C)(O)C(=O)C2=C1 (mixture of isomers) [Compound 13] | – | 5.12 ± 0.65 | – | –
CC(=O)OCOCC1=C(C)C=C2C(=O)C(C)(O)C3(CC3)C(C)=C21 (stereo not shown) [Compound 8] | – | 0.87 ± 0.09 | 0.63 ± 0.08 | IC50 [5]: 15.1 ± 2.2 µM
CCOCC1=C(C)C=C2C(=O)C(C)(O)C3(CC3)C(C)=C21 (stereo not shown) [Compound 16] | – | – | – | efficacy in MV522 xenograft (in words) [4]: effective
CC1=C2C(=CC3(C)COCOC23)C(=O)C(C)(O)C12CC2 (stereo not shown) [Compound 14] | 9.65 ± 1.2 | 0.115 ± 0.03 | – | –
CC1=C(COCCO)C2=C(C)C3(CC3)C(C)(O)C(=O)C2=C1 (stereo not shown) [Compound 22] | 31.7 ± 1.4 | – | 0.68 ± 0.18 | –
CO[C@@]12[C@H](COC(N)=O)C3=C(C(=O)C(C)=C(N)C3=O)N1C[C@@H]1N[C@@H]12 [Mitomycin C, reference compound] | – | – | – | day before which all animals succumbed ([4]; mouse, in vivo): < 31 days
CC1=C2C(=CC(C)(C)[C@@H]2O)C(=O)[C@](C)(O)C12CC2 [Illudin M] | – | – | – | life span (Dunning leukemia): significantly increased; therapeutic index (solid tumor systems): low
CC1=C(CCCO)C2=C(C)C3(CC3)C(C)(O)C(=O)C2=C1 (stereo not shown) [Compound 9] | 47.1 ± 11 | – | – | IC50 [5]: 15.1 ± 2.2 µM
